One block for each molecule: values may come before it.
Key:
[1] = test system: RARα and RXRα homodimers or heterodimers
[2] = test system: None (vector without insert); experiment: 3ERE-URA3 reporter in yeast strain PL3, vector without insert (control "None"); format: cell-based; conditions: no receptor, yeast PL3, in presence of ligand
RXRα-ER(C) = molecular target: T1, RXRα-ER(C) (Mus musculus, UniProt P28700, A202E/D171H/D178A/D181Q/G144N/G162A/I142V/INS139MESAKETRY/INS205MKGGIRKDRRGGRMLKHKRQRDDGEGRGEVGSM/K150Y/K170G/K180N/L172N/L183T/L201Y/M203V/N179T/N190K/Q188R/Q198R/R146Y/R169Q/R177P/R187N/R191S/S147A/T167S/T173D/T175M/V168I/Y155W/Y194A/Y197L); experiment: 3ERE-URA3 reporter transactivation in yeast strain PL3 (OMPdecase activity); format: cell-based
T1 construct: (a.a. 1 to 467), mouse RXRαdn; expressed in transfected cells; host or cells: Saccharomyces cerevisiae PL3 (multicopy YEp10/YEp90, PGK promoter)
T1 sequence (P28700 with tags, fused parts or gaps INS139MESAKETRY/I142V/G144N/R146Y/S147A/K150Y/Y155W/G162A/T167S/V168I/R169Q/K170G/D171H/L172N/T173D/T175M/R177P/D178A/N179T/K180N/D181Q/L183T/R187N/Q188R/N190K/R191S/Y194A/Y197L/Q198R/L201Y/A202E/M203V/INS205MKGGIRKDRRGGRMLKHKRQRDDGEGRGEVGSM): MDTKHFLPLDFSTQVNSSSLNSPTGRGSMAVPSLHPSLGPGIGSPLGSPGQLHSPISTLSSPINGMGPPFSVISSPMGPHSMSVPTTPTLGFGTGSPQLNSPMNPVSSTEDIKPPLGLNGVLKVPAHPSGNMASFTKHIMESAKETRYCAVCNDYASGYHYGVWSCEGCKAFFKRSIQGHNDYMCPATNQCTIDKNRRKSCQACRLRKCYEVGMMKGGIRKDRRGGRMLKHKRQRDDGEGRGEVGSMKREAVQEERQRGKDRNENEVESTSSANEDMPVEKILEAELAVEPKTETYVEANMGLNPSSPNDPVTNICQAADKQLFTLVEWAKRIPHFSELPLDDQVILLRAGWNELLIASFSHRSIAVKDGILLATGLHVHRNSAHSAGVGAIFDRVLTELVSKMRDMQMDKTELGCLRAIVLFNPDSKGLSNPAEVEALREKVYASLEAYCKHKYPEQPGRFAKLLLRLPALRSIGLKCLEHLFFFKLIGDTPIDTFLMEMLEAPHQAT
Protocol: (§1) Induction of the reporter was determined by measuring the specific activity of the URA3 gene product OMPdecase (see above).
Vector without insert was used as a control (“None”).

RARα1-ER.CAS = molecular target: T2, RARα1-ER.CAS (Homo sapiens, UniProt P10276, INS60IETQSSSSEEIVPSPPSPPPLPRIYKPCAVCNDYASGYHYGVWSCEGCKAFFKRSIQGHNDYMCPATNQCTIDKNRRKSCQACRLRKCYEVGMSKES)
T2 sequence (P10276 with tags, fused parts or gaps isoform P10276-3): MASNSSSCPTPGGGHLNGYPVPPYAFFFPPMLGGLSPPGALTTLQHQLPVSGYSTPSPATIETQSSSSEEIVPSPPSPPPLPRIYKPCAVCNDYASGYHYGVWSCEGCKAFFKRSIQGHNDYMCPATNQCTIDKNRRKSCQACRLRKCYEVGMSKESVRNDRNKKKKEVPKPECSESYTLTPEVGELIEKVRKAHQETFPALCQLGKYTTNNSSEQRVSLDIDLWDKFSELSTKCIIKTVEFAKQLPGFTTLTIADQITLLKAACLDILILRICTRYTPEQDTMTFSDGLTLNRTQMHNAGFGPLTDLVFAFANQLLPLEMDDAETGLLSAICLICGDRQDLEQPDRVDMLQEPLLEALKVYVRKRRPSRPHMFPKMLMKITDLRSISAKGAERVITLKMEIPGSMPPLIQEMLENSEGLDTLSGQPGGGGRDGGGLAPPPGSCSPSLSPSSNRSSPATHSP
Protocol: The 5′ prime flank of each construct contains a mammalian Kozak's sequence sandwiched between the EcoR1 and the translation start codon (5′-[…]-3′). […] PCR and site-directed mutagenesis were used to create RARα(DEF)-ER.CAS, RARα1(AB)-ER(C), RXRα(DE)-ER.CAS and RXRα(AB)-ER(C) as shown in FIG. 10a. All sequences generated by PCR or site directed mutagenesis were verified by sequencing. […] For transactivation experiments, transformants were grown exponentially for approximately 5 generations in selective medium […] uracil in the presence or absence of ligand, in conditions of diffuse light.
as §1
Vector without insert was used as a control (“None”). Transactivation data are expressed as OMPdecase activities; the mean values shown in the table were determined from duplicate assays with three individual transformants for each clone. The numbers in parentheses indicate the fold induction over the activity observed for each receptor in the absence of ligand.

hRAR-γ binding to β-RARE = molecular target: T3, hRAR-γ binding to β-RARE (Homo sapiens, UniProt P13631); experiment: Gel retardation assay of RAR binding to β-RARE (RBF complementation); conditions: with HeLa cell NE
T3 construct: fused to the amino terminal amino acid of full length hRAR-γ; 14 amino acids from the parental vector pEt3a (bacterially expressed preparation only) (N); made in house; host or cells: E. coli BL21 (DE3) plysS; also rVV-infected HeLa cells, rBV-infected Sf9 cells, yeast (ubiquitin fusion) and rabbit reticulocyte lysate
T3 sequence (P13631 1-454): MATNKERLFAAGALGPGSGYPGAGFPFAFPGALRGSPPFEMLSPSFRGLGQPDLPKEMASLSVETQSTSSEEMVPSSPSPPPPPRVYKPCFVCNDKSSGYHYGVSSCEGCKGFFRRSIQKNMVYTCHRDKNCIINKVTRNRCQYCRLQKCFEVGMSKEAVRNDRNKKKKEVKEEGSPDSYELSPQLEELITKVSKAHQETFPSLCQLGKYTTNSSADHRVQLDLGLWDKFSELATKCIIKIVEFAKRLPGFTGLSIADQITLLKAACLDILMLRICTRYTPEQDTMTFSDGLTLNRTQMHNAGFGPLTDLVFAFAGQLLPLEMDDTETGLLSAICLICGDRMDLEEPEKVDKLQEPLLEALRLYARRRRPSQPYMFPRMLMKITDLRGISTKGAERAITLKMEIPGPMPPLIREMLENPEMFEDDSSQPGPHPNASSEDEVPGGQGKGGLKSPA
T3 sequence (P28702 1-533 partner): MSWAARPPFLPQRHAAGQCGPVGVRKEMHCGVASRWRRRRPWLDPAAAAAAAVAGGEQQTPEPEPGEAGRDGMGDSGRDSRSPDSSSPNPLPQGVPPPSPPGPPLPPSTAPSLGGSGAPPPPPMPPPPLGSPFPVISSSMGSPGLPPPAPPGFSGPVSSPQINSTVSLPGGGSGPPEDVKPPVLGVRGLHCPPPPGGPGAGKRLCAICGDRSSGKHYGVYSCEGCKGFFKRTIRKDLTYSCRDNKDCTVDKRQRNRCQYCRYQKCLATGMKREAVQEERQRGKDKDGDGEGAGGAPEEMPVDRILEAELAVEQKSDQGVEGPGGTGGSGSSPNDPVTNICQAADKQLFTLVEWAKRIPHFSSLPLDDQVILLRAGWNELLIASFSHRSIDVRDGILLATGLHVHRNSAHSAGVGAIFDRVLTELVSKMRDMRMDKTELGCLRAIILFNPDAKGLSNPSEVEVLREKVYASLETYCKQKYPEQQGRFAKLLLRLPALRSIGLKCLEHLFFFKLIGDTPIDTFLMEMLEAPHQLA
Protocol: For gel retardation experiments comparing RAR and RXR subtypes and deletion mutants, all proteins were produced by in vitro translation in the presence of [^35S]methionine.
Purification of rVV- and rBV-expressed hRAR-γ is being described elsewhere (Chen et al., manuscript in preparation). […] All steps were carried out at 4° C. and RBF activity was monitored through all purification steps by a complementation gel retardation assay using bacterially-expressed hRAR-γ as described above. […] The column was washed with equilibration buffer until the A280 of the eluent returned to baseline. […] The column was washed with equilibration buffer until the A280 of the eluent returned to baseline and then with 4 column volumes of buffer A containing 0.45 M ammonium sulfate and 50 mM KCl. The column was then eluted with an 18 ml linear gradient from 0.45 to 0 M ammonium sulfate in buffer A containing 50 mM KCl.

RARα = molecular target: T4, RARα (Homo sapiens, UniProt P10276); experiment: URA3 reporter (DR5 etc.) transactivation in yeast strain YPH250 (OMPdecase activity); format: cell-based; conditions: RARα alone, ligand 5×10^−7 M (500 nM)
T4 construct: The human RARα1 (aa 1-462); expressed in transfected cells; host or cells: Saccharomyces cerevisiae YPH250 (YEp10/YEp90)
T4 sequence (P10276 1-462): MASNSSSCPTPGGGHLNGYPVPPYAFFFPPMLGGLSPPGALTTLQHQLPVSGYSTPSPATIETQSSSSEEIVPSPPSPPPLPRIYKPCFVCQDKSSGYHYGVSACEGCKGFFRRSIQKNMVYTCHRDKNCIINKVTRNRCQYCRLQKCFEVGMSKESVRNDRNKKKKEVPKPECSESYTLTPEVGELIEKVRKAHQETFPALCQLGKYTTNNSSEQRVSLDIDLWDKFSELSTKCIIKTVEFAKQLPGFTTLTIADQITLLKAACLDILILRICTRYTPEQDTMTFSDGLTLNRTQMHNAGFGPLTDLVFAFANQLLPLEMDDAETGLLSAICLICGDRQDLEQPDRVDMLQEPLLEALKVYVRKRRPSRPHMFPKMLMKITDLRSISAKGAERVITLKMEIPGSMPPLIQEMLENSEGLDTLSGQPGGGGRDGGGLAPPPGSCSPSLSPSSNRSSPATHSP

[3] = FIG. 10b dose response, FIG. 10c ligand 10^−6 M

SMILES: CC1=C(/C=C/C(C)=C\C=C\C(C)=C\C(=O)O)C(C)(C)CCC1 [9C-RA, 9-cis retinoic acid]
effect on binding of homodimers or heterodimers to the probes [1]: did not further stimulate | OMP decase activity units [2]: 0.02 units

induction of activation by RXRα-ER(C) (RXRα-ER(C); [3]): induced
SMILES: CC1=C(/C=C/C(C)=C\C=C\C(C)=C\C(=O)O)C(C)(C)CC=C1 [9C-ddRA, 9-cis 3,4-didehydroretinoic acid]

SMILES: CC1=C(/C=C/C(C)=C/C=C/C(C)=C/C(=O)O)C(C)(C)CCC1 [T-RA, all-trans retinoic acid]
OMP decase activity units (RARα1-ER.CAS; 3ERE-URA3 reporter, yeast PL3, in presence of ligand): 14.70 units | stimulation of transactivation by RARα1-ER.CAS (RARα1-ER.CAS; [3]): comparably stimulated | effect on formation of the hRAR-γ/β-RARE complex (hRAR-γ binding to β-RARE): In no case was the formation of the complex affected | induction of OMPdecase activity, DR5-URA3 reporter (RARα): approx. 5 fold | effect on binding of homodimers or heterodimers to the probes [1]: did not further stimulate | OMP decase activity units [2]: 0.02 units

conversion to 9-cis stereoisomers in yeast (RXRα-ER(C); inferred from lack of RXRα-ER(C) activation): not significantly converted
SMILES: CC1=C(/C=C/C(C)=C/C=C/C(C)=C/C(=O)O)C(C)(C)CC=C1 [T-ddRA, all-trans 3,4-didehydroretinoic acid]

From US6635429B1, “Heterodimeric nuclear receptors proteins, genes encoding same, and usage thereof” (Institut National de la Sante et de la Recherche Medicale, priority 1992, dated 2003)
